What all share (type): cell-based
The subject of one test is RhV-14 (Rhinovirus). Kind of test: microbe, parasite or virus in culture. Conditions: 120 hours at 32° C.; for IC50: Enterovirus, 120 h, read-out: IC50, RhV-14 (50 percent inhibition of plaque formation).
The next test has as its system RhV-16 (Rhinovirus). Kind of test: microbe, parasite or virus in culture. The conditions noted are these: Enterovirus; 120 hours at 32° C.; read-out: IC50, RhV-16 (50 percent inhibition of plaque formation).
The test system of the next test is RhV-1 (Rhinovirus). Kind of test: microbe, parasite or virus in culture. Conditions: Enterovirus; 120 hours at 32° C.; read-out: IC50, RhV-1 (50 percent inhibition of plaque formation).
The next test relates to RhV-2 (Rhinovirus). The experiment in a line: microbe, parasite or virus in culture. The conditions noted are these: Enterovirus; 120 hours at 32° C.; read-out: IC50, RhV-2 (50 percent inhibition of plaque formation).
For the next test, the system named is CS-B3 (Coxsackie virus). The experiment in a line: organism not typed. The conditions noted are these: 72 hours at 37° C.; read-out: IC50, CS-B3 (50 percent inhibition of plaque formation).
Another test has as its system PV-1 (poliovirus). Kind of test: microbe, parasite or virus in culture. The conditions noted are these: Enterovirus C; 72 hours at 37° C.; read-out: IC50, PV-1 (50 percent inhibition of plaque formation).
The test system of test [1] is CS-A21C (Coxsackie virus). Kind of test: organism not typed. Conditions: 72 hours at 37° C.; read-out: IC50, CS-A21C (50 percent inhibition of plaque formation).

Converted amounts (≈) assume the structure as drawn.

As to `CC(C)S(=O)(=O)n1c(N)nc2ccc(/C(=C\C#C[Si](C)(C)C)c3ccc(F)cc3)cc21` [1A (cis)], the IC50 with RhV-14 (Rhinovirus) came to 3.9 µg/mL (≈ 8.56 µM). Still for that read-out and setting: for `CC(C)S(=O)(=O)n1c(N)nc2ccc(/C(=C/C#C[Si](C)(C)C)c3ccc(F)cc3)cc21` [1A (trans)] the value was 10.9 µg/mL (≈ 23.9 µM). For the compound `C#C/C=C(\c1ccc(F)cc1)c1ccc2nc(N)n(S(=O)(=O)C(C)C)c2c1` [1B (trans)], the IC50 in the test on RhV-16 (Rhinovirus) was determined as 0.032 µg/mL (≈ 0.0835 µM); with RhV-1 (Rhinovirus), 0.078 µg/mL (≈ 0.203 µM); in the test on RhV-2 (Rhinovirus) it was 0.091 µg/mL (≈ 0.237 µM); in the test with RhV-14 (Rhinovirus) it was 0.101 µg/mL (≈ 0.263 µM). Take `C#C/C=C(/c1ccccc1)c1ccc2nc(N)n(S(=O)(=O)C(C)C)c2c1` [2C (cis)]: the values for the IC50 in the test with CS-B3 (Coxsackie virus) and in the test with PV-1 (poliovirus) were 0.055 µg/mL (≈ 0.15 µM) and 0.19 µg/mL (≈ 0.52 µM), respectively. Take `C#C/C=C(\c1ccccc1)c1ccc2nc(N)n(S(=O)(=O)C(C)C)c2c1` [2C (trans)]: the IC50 with RhV-16 (Rhinovirus) turned out to be 0.039 µg/mL (≈ 0.107 µM); in the test on RhV-1 (Rhinovirus) it was 0.033 µg/mL (≈ 0.0903 µM); with RhV-2 (Rhinovirus), 0.065 µg/mL (≈ 0.178 µM); with RhV-14 (Rhinovirus), 0.081 µg/mL (≈ 0.222 µM); in test [1], 0.32 µg/mL (≈ 0.876 µM); with PV-1 (poliovirus), 0.035 µg/mL (≈ 0.0958 µM). As to `C#C/C=C(\c1ccc(OC)cc1)c1ccc2nc(N)n(S(=O)(=O)C(C)C)c2c1` [3 (trans)], the IC50 in the test on RhV-16 (Rhinovirus) amounted to 0.029 µg/mL (≈ 0.0733 µM); with RhV-1 (Rhinovirus), 0.03 µg/mL (≈ 0.0759 µM); in the test on RhV-2 (Rhinovirus), 0.041 µg/mL (≈ 0.104 µM); in the test on RhV-14 (Rhinovirus), 0.059 µg/mL (≈ 0.149 µM); in the test on PV-1 (poliovirus), 0.21 µg/mL (≈ 0.531 µM). In the case of `C#C/C=C(\c1ccc(SC)cc1)c1ccc2nc(N)n(S(=O)(=O)C(C)C)c2c1` [4 (trans)], in the test with PV-1 (poliovirus), the IC50 amounted to 0.5 µg/mL (≈ 1.21 µM). Consider `C#C/C=C(\c1ccccc1)c1cc2c(cc1F)nc(N)n2S(=O)(=O)C(C)C` [5 (trans)], for which the IC50 in the test with RhV-14 (Rhinovirus) worked out at 1.9 µg/mL (≈ 4.96 µM).

Consider `C#C/C=C(\c1ccc(C)c(C)c1)c1ccc2nc(N)n(S(=O)(=O)C(C)C)c2c1` [8 (trans)], for which, in the test with PV-1 (poliovirus), the half-maximal inhibitory concentration (IC50) amounted to 0.1 µg/mL (≈ 0.254 µM).

With `C#C/C=C(/c1ccccc1)c1ccc2nc(N)n(-c3ccc(OC)cc3)c2c1` [9 (cis)], the IC50 with PV-1 (poliovirus) was 0.52 µg/mL (≈ 1.42 µM). For the compound `C#C/C=C(\c1ccccc1)c1ccc2nc(N)n(-c3ccc(OC)cc3)c2c1` [9 (trans)], the IC50 in the test with PV-1 (poliovirus) came out at 0.11 µg/mL (≈ 0.301 µM).

`C#C/C=C(/c1ccc(C(C)C)cc1)c1ccc2nc(N)n(S(=O)(=O)C(C)C)c2c1` [11 (cis)]: the IC50 in the test on PV-1 (poliovirus) came out at 2.74 µg/mL (≈ 6.72 µM). Same read-out and setting: for `C#C/C=C(\c1ccc(C(C)C)cc1)c1ccc2nc(N)n(S(=O)(=O)C(C)C)c2c1` [11 (trans)] the value was 0.088 µg/mL (≈ 0.216 µM). The same measure, in the same setting: for `C#C/C=C(/c1ccccc1)c1ccc2ncn(S(=O)(=O)C(C)C)c2c1` [12 (cis)] the value was 50 µg/mL (≈ 143 µM); for `C#C/C=C(\c1ccccc1)c1ccc2ncn(S(=O)(=O)C(C)C)c2c1` [12 (trans)], 19.2 µg/mL (≈ 54.8 µM); for `C#C/C=C(\c1ccc(C(F)(F)F)cc1)c1ccc2nc(N)n(S(=O)(=O)C(C)C)c2c1` [13 (trans)], 0.12 µg/mL (≈ 0.277 µM).

In the case of `C#C/C=C(\c1cccc(C(F)(F)F)c1)c1ccc2nc(N)n(S(=O)(=O)C(C)C)c2c1` [14 (trans)], in the test with RhV-14 (Rhinovirus), the IC50 was 0.331 µg/mL (≈ 0.764 µM). In the case of `C#CC=C(c1ccc(N(C)C)cc1)c1ccc2nc(N)n(S(=O)(=O)C(C)C)c2c1` [15B (trans)], the IC50 with RhV-14 (Rhinovirus) turned out to be 0.1 µg/mL (≈ 0.245 µM). On the same count and under the same terms, as for `C#CC=C(c1cccc(F)c1)c1ccc2nc(N)n(S(=O)(=O)N(C)C)c2c1` [16B (trans)], the figure is 0.038 µg/mL (≈ 0.0988 µM). For the compound `C#CC=C(c1cccc(F)c1)c1ccc2nc(N)n(S(=O)(=O)N(C)C)c2c1` [17 (trans)], the “IC50, RhV-14 (50 percent inhibition of plaque formation)” value in the test on RhV-14 (Rhinovirus) came to 0.071 µg/mL. With `C#CC=C(c1ccc(F)c(F)c1)c1ccc2nc(NS(C)(=O)=O)n(S(=O)(=O)C(C)C)c2c1` [18 (trans)], the IC50 with RhV-14 (Rhinovirus) was determined as 1.88 µg/mL (≈ 3.92 µM).

Turning to `C#CC=C(c1ccc(C)cc1)c1ccc2nc(N)n(S(=O)(=O)C(C)C)c2c1` [19 (trans)], in the test with RhV-14 (Rhinovirus), the IC50 turned out to be 0.078 µg/mL (≈ 0.206 µM).

Take `C#CC=C(c1ccc(F)c(F)c1)c1ccc2nc(N)n(S(=O)(=O)C(C)C)c2c1` [20 (trans)]: the IC50 with RhV-14 (Rhinovirus) worked out at 0.155 µg/mL (≈ 0.386 µM). For `C#CC=C(c1ccc2nc(N)n(S(=O)(=O)C(C)C)c2c1)c1ccccc1F` [21 (cis)], the “IC50, RhV-14 (50 percent inhibition of plaque formation)” value with RhV-14 (Rhinovirus) came to 0.478 µg/mL. Still for that read-out and setting: for `C#CC=C(c1ccc2nc(N)n(S(=O)(=O)C(C)C)c2c1)c1ccccc1F` [21 (trans)] the value was 0.078 µg/mL. As to `C#CC=C(c1ccccc1)c1ccc2nc(N)n(S(=O)(=O)C(C)C)c2c1F` [22 (trans)], the IC50 in the test on RhV-14 (Rhinovirus) was 1.9 µg/mL (≈ 4.96 µM). For `C#CC=C(c1ccccc1)c1cc2c(cc1C)nc(N)n2S(=O)(=O)C(C)C` [23 (trans)], the IC50 in the test on RhV-14 (Rhinovirus) was 3.9 µg/mL (≈ 10.3 µM). For `C#CC=C(c1cccc(F)c1)c1ccc2nc(N)n(S(=O)(=O)C(C)C)c2c1` [24 (trans)], the IC50 in the test on RhV-16 (Rhinovirus) came to 0.057 µg/mL (≈ 0.149 µM); in the test on RhV-1 (Rhinovirus) it was 0.027 µg/mL (≈ 0.0704 µM); in the test with RhV-2 (Rhinovirus) it was 0.069 µg/mL (≈ 0.18 µM); in the test with RhV-14 (Rhinovirus) it was 0.088 µg/mL (≈ 0.229 µM). As to `C#CC=C(c1ccc(OC)c(F)c1)c1ccc2nc(N)n(S(=O)(=O)C(C)C)c2c1` [25 (cis)], the “IC50, RhV-14 (50 percent inhibition of plaque formation)” value in the test with RhV-14 (Rhinovirus) came out at 0.428 µg/mL. In the case of `C#CC=C(c1ccc(OC)c(F)c1)c1ccc2nc(N)n(S(=O)(=O)C(C)C)c2c1` [25 (trans)], the IC50 in the test on RhV-16 (Rhinovirus) stood at 0.06 µg/mL (≈ 0.145 µM); in the test on RhV-1 (Rhinovirus), 0.049 µg/mL (≈ 0.119 µM); with RhV-2 (Rhinovirus) it was 0.054 µg/mL (≈ 0.131 µM). In addition, the “IC50, RhV-14 (50 percent inhibition of plaque formation)” value in the test on RhV-14 (Rhinovirus) amounted to 0.065 µg/mL.

For `C#CC=C(c1ccc2nc(N)n(S(=O)(=O)C(C)C)c2c1)c1cc(F)ccc1F` [26 (trans)], the IC50 in the test on RhV-16 (Rhinovirus) was determined as 0.099 µg/mL (≈ 0.247 µM); with RhV-1 (Rhinovirus), 0.096 µg/mL (≈ 0.239 µM); in the test on RhV-2 (Rhinovirus) it was 0.079 µg/mL (≈ 0.197 µM); in the test with RhV-14 (Rhinovirus), 0.115 µg/mL (≈ 0.286 µM).

In the case of `C#CC=C(c1cccc(Cl)c1)c1ccc2nc(N)n(S(=O)(=O)C(C)C)c2c1` [27 (trans)], the IC50 in the test on RhV-16 (Rhinovirus) is 0.185 µg/mL (≈ 0.463 µM); in the test with RhV-1 (Rhinovirus), 0.129 µg/mL (≈ 0.323 µM); in the test with RhV-2 (Rhinovirus), 0.123 µg/mL (≈ 0.308 µM); in the test on RhV-14 (Rhinovirus), 0.253 µg/mL (≈ 0.633 µM). Turning to `C#CC=C(c1ccc(OC(F)(F)F)cc1)c1ccc2nc(N)n(S(=O)(=O)C(C)C)c2c1` [28 (trans)], the IC50 in the test on RhV-2 (Rhinovirus) is 0.535 µg/mL (≈ 1.19 µM).

For `C#CC=C(c1cc(F)cc(F)c1)c1ccc2nc(N)n(S(=O)(=O)C(C)C)c2c1` [29 (trans)], the IC50 in the test with RhV-16 (Rhinovirus) came out at 0.261 µg/mL (≈ 0.65 µM); in the test with RhV-1 (Rhinovirus), 0.124 µg/mL (≈ 0.309 µM); with RhV-2 (Rhinovirus), 0.176 µg/mL (≈ 0.438 µM); in the test on RhV-14 (Rhinovirus), 0.236 µg/mL (≈ 0.588 µM). With `C#CC=C(c1ccc([S+](C)[O-])cc1)c1ccc2nc(N)n(S(=O)(=O)C(C)C)c2c1` (stereo not drawn) [30 (trans)], the IC50 in the test on PV-1 (poliovirus) came to 0.07 µg/mL (≈ 0.164 µM). With `C#CC=C(c1ccc(S(C)(=O)=O)cc1)c1ccc2nc(N)n(S(=O)(=O)C(C)C)c2c1` [31 (trans)], the IC50 with PV-1 (poliovirus) was determined as 0.05 µg/mL (≈ 0.113 µM). As to `CC#CC=C(c1cccc(F)c1)c1ccc2nc(N)n(S(=O)(=O)C(C)C)c2c1` [33D (trans)], the IC50 in the test on RhV-14 (Rhinovirus) was 0.19 µg/mL (≈ 0.478 µM).

As a reminder, the IC50 is the concentration at which inhibition is half-maximal.

Source of the values: patent publication US5693661A (priority 1995, dated 1997).
